From PubChem BioAssay (NCI)
Values joined by “and” are separate entries in the source; they are usually repeats but may differ in a detail not shown here. Identical values can stand only once.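 Step 1: Grow cells in 96-well plates. Step 2: Expose to compound for 48 hours at 5 concentrations. Step 3: Interpolate endpoints linearly; if unreached, use highest concentration. Abbreviation: GI50, concentration required for 50% inhibition of growth. The concentration for full growth arrest is given as TGI.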

How the values were obtained:
Experiment in all cases: growth of human tumour cells (NCI), 48 h; in the data active = GI50 below about 0.43 µM; inactive = the rest
MOLT-4 leukemia = test system: MOLT-4 leukemia
HT29 colon = test system: HT29 colon
HL-60(TB) leukemia = test system: HL-60(TB) leukemia
K-562 leukemia = test system: K-562 leukemia
OVCAR-5 ovarian = test system: OVCAR-5 ovarian
SF-539 CNS = test system: SF-539 CNS
ACHN renal = test system: ACHN renal
OVCAR-4 ovarian = test system: OVCAR-4 ovarian
TK-10 renal = test system: TK-10 renal
HCT-15 colon = test system: HCT-15 colon
MALME-3M melanoma = test system: MALME-3M melanoma
COLO 205 colon = test system: COLO 205 colon
SK-MEL-5 melanoma = test system: SK-MEL-5 melanoma
A549 NSCLC = test system: A549 NSCLC
SK-OV-3 ovarian = test system: SK-OV-3 ovarian
SN12C renal = test system: SN12C renal

Cc1[nH]nc(N)c1C(N)=O
> 100 µM: TGI (MOLT-4 leukemia) | TGI (HT29 colon) | TGI (HL-60(TB) leukemia) | TGI (K-562 leukemia) | TGI (OVCAR-5 ovarian) | TGI (SF-539 CNS) | TGI (ACHN renal) | TGI (OVCAR-4 ovarian) | TGI (TK-10 renal) | TGI (HCT-15 colon) | TGI (MALME-3M melanoma) | TGI (COLO 205 colon) | TGI (SK-MEL-5 melanoma) | TGI (A549 NSCLC) | TGI (SK-OV-3 ovarian) | TGI (SN12C renal)

CC(=O)NC(CCC(=O)C=[N+]=N)C(=O)O (stereo not given)
> 100 µM: TGI (MOLT-4 leukemia) | TGI (HT29 colon) | TGI (HL-60(TB) leukemia) | TGI (K-562 leukemia) | TGI (OVCAR-5 ovarian) | TGI (SF-539 CNS) | TGI (ACHN renal) | TGI (OVCAR-4 ovarian) | TGI (TK-10 renal) | TGI (HCT-15 colon) | TGI (MALME-3M melanoma) | TGI (COLO 205 colon) | TGI (SK-MEL-5 melanoma) | TGI (A549 NSCLC) | TGI (SK-OV-3 ovarian) | TGI (SN12C renal)

OC1CCOc2ccccc21 (stereo not given)
> 100 µM: TGI (MOLT-4 leukemia) | TGI (HT29 colon) | TGI (HL-60(TB) leukemia) | TGI (K-562 leukemia) | TGI (OVCAR-5 ovarian) | TGI (SF-539 CNS) | TGI (ACHN renal) | TGI (OVCAR-4 ovarian) | TGI (TK-10 renal) | TGI (HCT-15 colon) | TGI (MALME-3M melanoma) | TGI (COLO 205 colon) | TGI (SK-MEL-5 melanoma) | TGI (A549 NSCLC) | TGI (SK-OV-3 ovarian) | TGI (SN12C renal)

CCCC(=O)NC1CCc2cc(OC)c(OC)c(OC)c2-c2ccc(OC)c(=O)cc21 (stereo not given)
25.5 µM: TGI (HCT-15 colon)
0.00199 µM: TGI (SF-539 CNS)
0.158 µM: TGI (HL-60(TB) leukemia)
> 100 µM: TGI (K-562 leukemia) | TGI (ACHN renal) | TGI (TK-10 renal) | TGI (MALME-3M melanoma) | TGI (A549 NSCLC) | TGI (SN12C renal)
active: GI50 (HCT-15 colon) 0.011 µM
0.125 µM: TGI (HT29 colon)

CCOC(=O)c1c(Cl)nc2ccccc2c1N=[N+]=[N-]
31.7 µM: TGI (OVCAR-4 ovarian)
99.8 µM: TGI (TK-10 renal)
34.2 µM: TGI (HT29 colon)
> 100 µM: TGI (MOLT-4 leukemia) | TGI (HL-60(TB) leukemia) | TGI (K-562 leukemia) | TGI (ACHN renal) | TGI (MALME-3M melanoma) | TGI (SK-MEL-5 melanoma) | TGI (A549 NSCLC) | TGI (SK-OV-3 ovarian)
36.1 µM: TGI (COLO 205 colon)
41.1 µM: TGI (OVCAR-5 ovarian)
37.7 µM: TGI (SF-539 CNS)
34.6 µM: TGI (HCT-15 colon)
30.7 µM: TGI (SN12C renal)

S=C1CC(c2ccccc2)Sc2ccccc2N1 (stereo not given)
> 100 µM: TGI (MOLT-4 leukemia) | TGI (HT29 colon) | TGI (HL-60(TB) leukemia) | TGI (K-562 leukemia) | TGI (OVCAR-5 ovarian) | TGI (ACHN renal) | TGI (OVCAR-4 ovarian) | TGI (TK-10 renal) | TGI (HCT-15 colon) | TGI (MALME-3M melanoma) | TGI (COLO 205 colon) | TGI (SK-MEL-5 melanoma) | TGI (SK-OV-3 ovarian) | TGI (SN12C renal)

O=S(=O)(O)c1ccc(N=Nc2c(O)ccc3cc(Br)ccc23)cc1
> 100 µM: TGI (MOLT-4 leukemia) | TGI (HT29 colon) | TGI (OVCAR-5 ovarian) | TGI (ACHN renal) | TGI (OVCAR-4 ovarian) | TGI (TK-10 renal) | TGI (HCT-15 colon) | TGI (MALME-3M melanoma) | TGI (COLO 205 colon) | TGI (SK-MEL-5 melanoma) | TGI (A549 NSCLC) | TGI (SK-OV-3 ovarian) | TGI (SN12C renal)

CC1CCC2(C(=O)O)CCC3(C)C(=CCC4C5(C)CCC(O)C(C)(C)C5CCC43C)C2C1C (stereo not given)
19.6 µM and 23.2 µM: TGI (OVCAR-5 ovarian)
26.3 µM and 28.3 µM: TGI (COLO 205 colon)
25.6 µM and 28.9 µM: TGI (MALME-3M melanoma)
27 µM and 35.1 µM: TGI (SK-OV-3 ovarian)
18.9 µM and 36.1 µM: TGI (SN12C renal)
50.8 µM and 23.8 µM: TGI (SK-MEL-5 melanoma)
16.7 µM and 37.2 µM: TGI (MOLT-4 leukemia)
15.6 µM: TGI (K-562 leukemia)
43.9 µM: TGI (TK-10 renal)
19 µM and 6.49 µM: TGI (HL-60(TB) leukemia)
15.4 µM and 26.6 µM: TGI (HCT-15 colon)
24.2 µM and 31.9 µM: TGI (OVCAR-4 ovarian)
21.4 µM and > 100 µM: TGI (A549 NSCLC)
22.5 µM and 35.6 µM: TGI (SF-539 CNS)
22.9 µM and 37.7 µM: TGI (HT29 colon)
inactive: GI50 (MOLT-4 leukemia) 3.66 µM and 12.1 µM | GI50 (HCT-15 colon) 5.53 µM and 13.3 µM | GI50 (SK-MEL-5 melanoma) 26.4 µM and 11.3 µM | GI50 (A549 NSCLC) 10.1 µM and 26.4 µM

CNC(=O)SCC(N)C(=O)O (stereo not given)
> 100 µM: TGI (MOLT-4 leukemia) | TGI (HT29 colon) | TGI (HL-60(TB) leukemia) | TGI (K-562 leukemia) | TGI (OVCAR-5 ovarian) | TGI (SF-539 CNS) | TGI (OVCAR-4 ovarian) | TGI (HCT-15 colon) | TGI (MALME-3M melanoma) | TGI (COLO 205 colon) | TGI (SK-MEL-5 melanoma) | TGI (A549 NSCLC) | TGI (SK-OV-3 ovarian) | TGI (SN12C renal)

CC1CC[C@@]2(OC1)OC1CC3C4CCC5C[C@@H](OC6OC(CO)C(OC7OC(CO)C(O)C(OC8OC(CO)C(O)C(OC9OC(CO)C(O)C(O)C9O)C8O)C7OC7OC(CO)C(O)C(O)C7O)C(O)C6O)[C@H](O)C[C@]5(C)C4CC[C@]3(C)C1[C@@H]2C (stereo not given in full)
> 80.5 µM: TGI (HT29 colon) | TGI (HL-60(TB) leukemia) | TGI (K-562 leukemia) | TGI (OVCAR-5 ovarian) | TGI (SF-539 CNS) | TGI (ACHN renal) | TGI (OVCAR-4 ovarian) | TGI (TK-10 renal) | TGI (HCT-15 colon) | TGI (MALME-3M melanoma) | TGI (COLO 205 colon) | TGI (SK-MEL-5 melanoma) | TGI (A549 NSCLC) | TGI (SK-OV-3 ovarian) | TGI (SN12C renal)

C/C=C/C1=CC(=O)C(O)C1O (stereo not given)
179 µM: TGI (K-562 leukemia)
111 µM: TGI (OVCAR-4 ovarian)
64 µM: TGI (SN12C renal)
57.5 µM: TGI (HL-60(TB) leukemia)
109 µM: TGI (MOLT-4 leukemia)
55.9 µM: TGI (SF-539 CNS)
107 µM: TGI (A549 NSCLC)
102 µM: TGI (HT29 colon)
79.8 µM: TGI (SK-MEL-5 melanoma)
87.4 µM: TGI (MALME-3M melanoma)
97.2 µM: TGI (HCT-15 colon)
130 µM: TGI (OVCAR-5 ovarian) | TGI (SK-OV-3 ovarian)
51.8 µM: TGI (COLO 205 colon)

COC1C=COC2(C)Oc3c(C)c(O)c4c(O)c(c(/C=N/N5CCN(N)CC5)c(O)c4c3C2=O)NC(=O)C(C)=CC=CC(C)C(O)C(C)C(O)C(C)C(OC(C)=O)C1C (stereo not given)
> 100 µM: TGI (MOLT-4 leukemia) | TGI (HT29 colon) | TGI (HL-60(TB) leukemia) | TGI (K-562 leukemia) | TGI (OVCAR-5 ovarian) | TGI (SF-539 CNS) | TGI (ACHN renal) | TGI (OVCAR-4 ovarian) | TGI (TK-10 renal) | TGI (HCT-15 colon) | TGI (MALME-3M melanoma) | TGI (COLO 205 colon) | TGI (SK-MEL-5 melanoma) | TGI (A549 NSCLC) | TGI (SK-OV-3 ovarian) | TGI (SN12C renal)

CC1(C)Cc2c(C#N)c(N)c3c(c2CO1)C(=O)OC3=O
> 100 µM: TGI (MOLT-4 leukemia) | TGI (HT29 colon) | TGI (HL-60(TB) leukemia) | TGI (K-562 leukemia) | TGI (OVCAR-5 ovarian) | TGI (SF-539 CNS) | TGI (ACHN renal) | TGI (OVCAR-4 ovarian) | TGI (TK-10 renal) | TGI (HCT-15 colon) | TGI (MALME-3M melanoma) | TGI (COLO 205 colon) | TGI (SK-MEL-5 melanoma) | TGI (A549 NSCLC) | TGI (SK-OV-3 ovarian) | TGI (SN12C renal)

CCC(=O)c1ccc2[nH]c3c(C)c4c(=O)cc(C)[nH]c4c(C)c3c2c1
> 100 µM: TGI (MOLT-4 leukemia) | TGI (HT29 colon) | TGI (HL-60(TB) leukemia) | TGI (OVCAR-5 ovarian) | TGI (SF-539 CNS) | TGI (ACHN renal) | TGI (OVCAR-4 ovarian) | TGI (TK-10 renal) | TGI (HCT-15 colon) | TGI (MALME-3M melanoma) | TGI (COLO 205 colon) | TGI (SK-MEL-5 melanoma) | TGI (A549 NSCLC)

CC(=O)NC(c1nc2cc(C)c(C)cc2[nH]1)c1nc2cc(C)c(C)cc2[nH]1
26.6 µM: TGI (MOLT-4 leukemia)
60 µM: TGI (HCT-15 colon)
30.5 µM: TGI (SF-539 CNS)
43.4 µM: TGI (COLO 205 colon)
> 100 µM: TGI (HL-60(TB) leukemia) | TGI (K-562 leukemia) | TGI (OVCAR-5 ovarian) | TGI (ACHN renal)
89.1 µM: TGI (TK-10 renal)
32 µM: TGI (SK-MEL-5 melanoma)
78.1 µM: TGI (HT29 colon)
65.2 µM: TGI (A549 NSCLC)
72.8 µM: TGI (OVCAR-4 ovarian)
83.7 µM: TGI (MALME-3M melanoma)
77.4 µM: TGI (SN12C renal)
71.9 µM: TGI (SK-OV-3 ovarian)
